What all share (format): cell-based
Assay [1] addresses T1, human SVCT1 (Homo sapiens, UniProt Q9UHI7).
T1 construct: expressed in transfected cells; host or cells: Xenopus laevis oocytes injected with cRNA (vector pTLN2)
Description: Two-microelectrode voltage-clamp of Xenopus oocytes expressing human SVCT1. The settings on record: for transport / substrate selectivity (in words): 500 μM. As to the method:
(§1) Functional characterization in Xenopus oocytes—SVCT1 and SVCT2 cDNAs were subcloned into the pTLN2 vector (to improve functional expression in oocytes) and used for cRNA synthesis in vitro using the MEGAscript kit and T7 RNA polymerase (from Ambion). Oocytes were isolated from Xenopus laevis, treated with collagenase A and maintained at 18° C. in modified Barths' medium. Oocytes were injected with 15 ng SVCT1 or SVCT2 cRNA or water only. The radiotracer uptake and voltage-clamp experiments described below were conducted 2-5 days post-injection in standard medium of composition 100 mM NaCl, 2 mM KCl, 1 mM CaCl2, 1 mM MgCl2, and 10 mM HEPES (buffered to pH 7.5 with Tris base). For low-Na^+ or Na^+-free media, NaCl was replaced with choline chloride. For pH-dependence experiments, Na^+ media were buffered to between pH 5.5 and pH 8.0 using 0-5 mM MES, 0-5 mM HEPES and 0-5 mM Tris base. L-Ascorbic acid-containing solutions were always freshly prepared and used immediately. Radiotracer uptake was determined by incubating 8-12 oocytes for 30 min (within the time-course of linear uptake) in standard Na^+, low-Na^+ or Na^+-free media with 10-500 μM L-[1-^14C]ascorbic acid (final specific activity ≈0.3 GBq/mmol). Oocytes were solubilized with 10% SDS and carbon-14 content measured by liquid scintillation counting. A two-microelectrode voltage-clamp was used to measure currents associated with SVCT1 expressed in oocytes. Oocytes were superfused at 22° C. in standard Na^+ medium and clamped at −50 mV. Current was continuously monitored by sampling at 1 Hz. Test solutions were always washed out with substrate-free, Na^+-free medium at pH 7.5 for several minutes. Once again, saturation kinetics data were fit to a modified Hill equation in which I and Imax were replaced by uptake V and maximal velocity Vmax for analysis of radiotracer uptake data.

The target of assay [2] is T2, rat SVCT1 (Rattus norvegicus, UniProt Q9WTW7).
T2 construct: expressed in transfected cells; host or cells: Xenopus laevis oocytes injected with cRNA
T2 sequence (Q9WTW7 whole entry): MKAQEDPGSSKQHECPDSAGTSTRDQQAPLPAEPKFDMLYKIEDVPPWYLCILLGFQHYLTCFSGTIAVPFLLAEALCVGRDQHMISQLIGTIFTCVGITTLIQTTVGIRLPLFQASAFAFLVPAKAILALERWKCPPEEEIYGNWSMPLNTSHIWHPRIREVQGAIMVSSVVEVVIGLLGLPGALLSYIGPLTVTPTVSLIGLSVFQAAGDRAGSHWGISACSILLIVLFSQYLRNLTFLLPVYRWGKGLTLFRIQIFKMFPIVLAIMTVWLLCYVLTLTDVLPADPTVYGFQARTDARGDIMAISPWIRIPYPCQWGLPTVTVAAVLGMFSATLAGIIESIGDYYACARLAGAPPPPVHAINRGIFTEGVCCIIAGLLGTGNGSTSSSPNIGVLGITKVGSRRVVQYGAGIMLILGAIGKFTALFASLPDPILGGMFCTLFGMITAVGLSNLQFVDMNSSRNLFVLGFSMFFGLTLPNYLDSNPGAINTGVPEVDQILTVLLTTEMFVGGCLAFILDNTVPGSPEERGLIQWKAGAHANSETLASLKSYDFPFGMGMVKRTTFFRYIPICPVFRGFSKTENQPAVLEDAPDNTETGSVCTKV
Description: Two-microelectrode voltage-clamp of Xenopus oocytes expressing rat SVCT1. The settings on record: for evoked current relative to that for L-ascorbic acid: substrate selectivity, FIG. 4F; for evoked current / substrate selectivity (in words): oocytes expressing SVCT1. As to the method: Rat SVCT1 and SVCT2 clones were obtained by isolating SVCT1 cDNA from rat kidney by expression cloning as described in Hediger et al., Methods Enzymol. 296:17-52 (1998). The SVCT2 cDNA was subsequently isolated by PCR-based homology screening of a rat brain cDNA library. […] Radiotracer and voltage-clamp experiments were performed (at 22° C.) in Xenopus oocytes two to seven days after injection with ˜25 ng of SVCT1 or SVCT2 cRNA synthesized in vitro. Radiotracer uptake was determined by incubating 6-10 oocytes for 30 or 60 min in standard 100 mM Na^+ or Na^+-free media with 10-600 μM L-[^14C]ascorbic acid.
(§2) Functional characterization of SVCT1 and SVCT2 in Xenopus oocytes—Oocytes were isolated from Xenopus laevis (under 2-aminoethylbenzoate anaesthesia), treated with collagenase A and stored at 18° C. in modified Barths' medium. Oocytes were injected with ≈25 ng of SVCT1 or SVCT2 cRNA synthesized in vitro, or water only (control), and incubated 2-7 days before radiotracer or voltage-clamp experiments were performed. Standard Na^+ uptake medium comprised 100 mM NaCl, 2 mM KCl, 1 mM CaCl2, 1 mM MgCl2, 10 mM HEPES (pH 7.5 with Tris base). For Na^+-free or low-Na^+ media, NaCl was replaced by equimolar choline chloride; likewise, Cl^− was replaced by gluconate for Cl^−-free medium. For pH-sensitivity experiments, Na^+ media were buffered at pH 5.5-8.0 using 0-5 mM MES, 0-5 mM HEPES and 0-5 mM Tris base. L-Ascorbic acid-containing solutions were freshly-prepared (without dithiothreitol) and used immediately.
(§3) Radiotracer uptake was determined by incubating 6-10 oocytes for 30 or 60 min in standard Na^+ or Na^+-free media (at 22° C.) with 10-600 μM L-[1-^14C]ascorbic acid (final specific activity 0.3 GBq/mmol). Oocytes were solubilized with 10% SDS and [^14C]-content was measured by liquid scintillation counting. A two-microelectrode voltage-clamp was used to measure currents in control oocytes and oocytes injected with rat SVCT1 or rat SVCT2 cRNA. Microelectrodes (resistance 0.5-5 MΩ) were filled with 3 M KCl. Oocytes were superfused at 22° C. in standard Na^+ medium and clamped at a holding potential (Vh) of −50 mV. For continuous current monitoring at Vh=−50 mV, the current was low-pass filtered at 20 Hz (sampling at 1 Hz). Additionally, step-changes in membrane potential (Vm) were applied (from +50 mV to −150 mV in 20-mV increments), each for a duration of 100 ms, before and after the addition of substrate; current was low-pass filtered at 500 Hz and digitized at 5 kHz. Test solutions were always washed out with substrate-free medium (100 mM choline chloride) at pH 7.5 for several minutes. Steady-state data (obtained by averaging the points over the final 16.7 ms at each Vm step when step-changes were applied) were fitted to equation (1) below, for which I is the evoked current (i.e., the difference in steady-state current measured in the presence and absence of substrate), Imax the derived current maximum, S the concentration of substrate S (Na^+ or L-ascorbic acid),
(§4) [formula] the substrate concentration at which current was half-maximal, and nH the Hill coefficient for S. (For radiotracer experiments, I was replaced with velocity V and Imax replaced with the derived maximal velocity, Vmax.)

Assay [3] deals with T2, rat SVCT1. Description: L-[14C]ascorbic acid radiotracer uptake in Xenopus oocytes expressing rat SVCT1. As to the method: (§5) Rat SVCT1 and SVCT2 clones were obtained by isolating SVCT1 cDNA from rat kidney by expression cloning as described in Hediger et al., Methods Enzymol. 296:17-52 (1998). The SVCT2 cDNA was subsequently isolated by PCR-based homology screening of a rat brain cDNA library. A 2.5-kb rabbit cDNA with 96% identity to residues 96-505 of the rat SVCT2 was obtained by RT-PCR. Radiotracer and voltage-clamp experiments were performed (at 22° C.) in Xenopus oocytes two to seven days after injection with ˜25 ng of SVCT1 or SVCT2 cRNA synthesized in vitro. Radiotracer uptake was determined by incubating 6-10 oocytes for 30 or 60 min in standard 100 mM Na^+ or Na^+-free media with 10-600 μM L-[^14C]ascorbic acid.
as §2, §3, §4

Assay [4] addresses T3, rat SVCT2 (Rattus norvegicus, UniProt Q9WTW8).
T3 construct: expressed in transfected cells; host or cells: Xenopus laevis oocytes injected with cRNA (vector pTLN2)
Description: L-[14C]ascorbic acid radiotracer uptake in Xenopus oocytes expressing rat SVCT2. As to the method: as §5, §2
as §3, with “Additionally, step-changes in membrane potential (Vm) were applied (from +50 mV to −150 mV in 20-mV increments), each for a duration of 100 ms, before and after the addition of substrate; current was low-pass filtered at 500 Hz and digitized at 5 kHz. Test solutions were always washed out with substrate-free medium (100 mM choline chloride) at pH 7.5 for several minutes.” left out, “acid), […]” for “acid),”

Assay [5] addresses T1, human SVCT1. Description: L-[14C]ascorbic acid radiotracer uptake in Xenopus oocytes expressing human SVCT1. The settings on record: data not shown. As to the method: as §1, with “Radiotracer uptake was determined by incubating 8-12 oocytes for 30 min (within the time-course of linear uptake) in standard Na^+, low-Na^+ or Na^+-free media with 10-500 μM L-[1-^14C]ascorbic acid (final specific activity ≈0.3 GBq/mmol).” left out

T3 sequence (Q9WTW8 whole entry): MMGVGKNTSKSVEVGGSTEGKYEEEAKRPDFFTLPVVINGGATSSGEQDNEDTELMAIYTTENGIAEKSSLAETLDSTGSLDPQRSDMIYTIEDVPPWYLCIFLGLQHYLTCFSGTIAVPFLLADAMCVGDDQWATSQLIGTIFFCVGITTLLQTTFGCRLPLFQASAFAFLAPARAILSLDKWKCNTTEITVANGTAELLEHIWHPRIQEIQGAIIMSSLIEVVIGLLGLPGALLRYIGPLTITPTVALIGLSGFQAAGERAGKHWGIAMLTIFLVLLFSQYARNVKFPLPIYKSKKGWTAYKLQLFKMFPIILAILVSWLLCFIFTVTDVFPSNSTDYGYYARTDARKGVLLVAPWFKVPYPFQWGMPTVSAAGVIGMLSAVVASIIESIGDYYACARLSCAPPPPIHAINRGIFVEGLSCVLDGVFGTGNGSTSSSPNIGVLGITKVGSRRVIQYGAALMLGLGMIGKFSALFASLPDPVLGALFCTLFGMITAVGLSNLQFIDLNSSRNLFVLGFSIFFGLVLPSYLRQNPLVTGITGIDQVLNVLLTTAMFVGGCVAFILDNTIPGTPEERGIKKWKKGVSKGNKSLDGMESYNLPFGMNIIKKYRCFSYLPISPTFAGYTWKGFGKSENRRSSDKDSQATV
T1 sequence (Q9UHI7 whole entry): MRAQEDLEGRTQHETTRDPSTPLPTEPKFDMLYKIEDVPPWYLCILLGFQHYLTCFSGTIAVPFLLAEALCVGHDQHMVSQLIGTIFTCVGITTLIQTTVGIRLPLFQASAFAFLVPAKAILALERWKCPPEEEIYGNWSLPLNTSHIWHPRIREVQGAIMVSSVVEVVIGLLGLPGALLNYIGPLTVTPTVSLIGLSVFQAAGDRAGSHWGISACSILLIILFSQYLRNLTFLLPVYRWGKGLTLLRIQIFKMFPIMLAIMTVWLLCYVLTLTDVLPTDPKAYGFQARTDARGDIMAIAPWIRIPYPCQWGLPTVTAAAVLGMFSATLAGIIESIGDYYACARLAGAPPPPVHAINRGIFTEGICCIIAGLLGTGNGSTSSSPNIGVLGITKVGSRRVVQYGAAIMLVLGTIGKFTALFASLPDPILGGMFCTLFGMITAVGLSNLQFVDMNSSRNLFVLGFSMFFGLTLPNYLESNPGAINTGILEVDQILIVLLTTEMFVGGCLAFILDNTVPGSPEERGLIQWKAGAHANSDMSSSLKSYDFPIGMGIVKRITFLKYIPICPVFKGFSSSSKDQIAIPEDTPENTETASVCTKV

In the case of `O=C1O[C@H]([C@H](O)CO)C(O)=C1O` [D-isoascorbic acid], in assay [1] (each at 500 μM, −50 mV), the “evoked current relative to that of L-ascorbic acid” value is “about 15%”. The “K0.5 based on evoked currents” value in assay [1] (−50 mV) amounted to 2.7 ± 1.2 mM. Besides, the “evoked current relative to that for L-ascorbic acid” value in assay [2] is given as “≈ 30%”.
Take `O=c1[nH]c(=O)c2[nH]cnc2[nH]1` [xanthine]: the “inhibition of SVCT1-mediated L-[14C]ascorbic acid uptake (in words)” value in assay [3] is listed as “modest inhibition”. Besides, in assay [2], the “evoked current / substrate selectivity (in words)” value was “tiny outward currents”. In addition, the “inhibition of SVCT2-mediated L-[14C]ascorbic acid uptake (in words)” value in assay [4] is listed as “modest inhibition”.
Consider `O=C1O[C@H]([C@@H](O)CO)C(=O)C1=O` [dehydroascorbic acid], for which, in assay [1] (−50 mV), the “transport / substrate selectivity (in words)” value is “barely transported”. Also, the “evoked current relative to that for L-ascorbic acid” value in assay [2] is listed as “≈ 5%”.
On to `O=C[C@H](O)[C@@H](O)[C@H](O)[C@H](O)CO` [D-glucose], for which, in assay [5], the “inhibition of L-[14C]ascorbic acid uptake (in words)” value is “not significantly inhibited”. In addition, the “transport / substrate selectivity (in words)” value in assay [1] (−50 mV) is on record as “excluded”. Further, the “evoked current / substrate selectivity (in words)” value in assay [2] is reported as “excluded”.
Turning to `O=C1O[C@H]([C@@H](O)CO)[C@H](O)[C@@H]1O` [L-gulono-γ-lactone], the “transport / substrate selectivity (in words)” value in assay [1] (−50 mV) was “excluded”. Besides, in assay [2], the “evoked current / substrate selectivity (in words)” value is “excluded”.
For `CC(=O)Oc1ccccc1C(=O)O` [aspirin, acetyl-salicylic acid], the “inhibition of SVCT1-mediated L-[14C]ascorbic acid uptake (in words)” value in assay [3] was “modest inhibition”. Further, in assay [5], the “inhibition of L-[14C]ascorbic acid uptake (in words)” value is listed as “not significantly inhibited”. Also, the “evoked current / substrate selectivity (in words)” value in assay [2] is listed as “tiny outward currents”. Further, in assay [4], the “inhibition of SVCT2-mediated L-[14C]ascorbic acid uptake (in words)” value was “modest inhibition”.
In the case of `O=C(CCc1ccc(O)cc1)c1c(O)cc(O)cc1O[C@@H]1O[C@H](CO)[C@@H](O)[C@H](O)[C@H]1O` [phlorizin], in assay [3], the “inhibition of SVCT1-mediated L-[14C]ascorbic acid uptake (in words)” value is “modest inhibition”. Besides, in assay [2], the “evoked current / substrate selectivity (in words)” value was “tiny outward currents”. In addition, in assay [4], the “inhibition of SVCT2-mediated L-[14C]ascorbic acid uptake (in words)” value was “modest inhibition”.
Take `O=C(CCc1ccc(O)cc1)c1c(O)cc(O)cc1O` [phloretin]: in assay [3], the “inhibition of SVCT1-mediated L-[14C]ascorbic acid uptake (in words)” value was “inhibited”. The “mode of inhibition of L-[14C]ascorbic acid uptake” value in assay [3] (Dixon analysis) is on record as “non-competitive inhibitor”. The Ki is about 65 µM in assay [3] (FIG. 4I, read-out: Ki, Dixon analysis of L-[14C]ascorbic acid uptake) and about 100 µM in assay [2] (uniport mode, absence of L-ascorbic acid, read-out: apparent Ki, inhibition of the Na^+ leak current). Also, in assay [5], the “inhibition of L-[14C]ascorbic acid uptake” value is listed as “≈ 80%”. The “inhibition of the L-ascorbic acid-evoked current (in words)” value in assay [1] (FIG. 8A, 100 μM phloretin) is “potent inhibitor”. Moreover, the “block of the Na^+ leak current (in words)” value in assay [1] (absence of L-ascorbic acid or other substrate) is on record as “blocked”. In assay [2] (FIG. 4H), the “block of the inward current evoked by L-ascorbic acid” value is on record as “blocked”. Further, in assay [2], the “evoked current / substrate selectivity (in words)” value was “sizable outward current”. Further, the “inhibition of SVCT2-mediated L-[14C]ascorbic acid uptake (in words)” value in assay [4] is “inhibited”.
